For 3 molecules, Ki and Km results are on record in ChEMBL document CHEMBL1121380, “Perspective on the design and biochemical pharmacology of inhibitors of thymidylate synthetase” (J Med Chem, 1980).

Data set [1] is described as follows: In vitro inhibition against mammalian Uridine phosphorylase.
Data set [2] in a line: Michaelis-Menten constant for Uridine phosphorylase.
Substrate in data set [3]: O=c1[nH]c(=S)ccn1[C@H]1C[C@H](O)[C@@H](COP(=O)(O)O)O1
The data set is described as follows: Michaelis-Menten constant for dTMP synthetase. The note with it: Lacticaseibacillus casei.

As to `Oc1ncc(Cc2ccccc2)c(O)n1`, in data set [1], the Ki (in general, the equilibrium dissociation constant of an inhibitor or competing ligand from its target) was about 1 µM.

On to `C[C@H]1OC(n2ccc(=O)[nH]c2=O)[C@H](O)[C@@H]1O` (stereo partly drawn), for which the Km (as a rule, the substrate concentration at which the rate is half of its maximum) in data set [2] was 1000 µM.

B1: Thymidylate synthase (Lactobacillus casei), P00469 (protein)
chain: MLEQPYLDLAKKVLDEGHFKPDRTHTGTYSIFGHQMRFDLSKGFPLLTTKKVPFGLIKSELLWFLHGDTNIRFLLQHRNHIWDEWAFEKWVKSDEYHGPDMTDFGHRSQKDPEFAAVYHEEMAKFDDRVLHDDAFAAKYGDLGLVYGSQWRAWHTSKGDTIDQLGDVIEQIKTHPYSRRLIVSAWNPEDVPTMALPPCHTLYQFYVNDGKLSLQLYQRSADIFLGVPFNIASYALLTHLVAHECGLEVGEFIHTFGDAHLYVNHLDQIKEQLSRTPRPAPTLQLNPDKHDIFDFDMKDIKLLNYDPYPAIKAPVAV
For the molecule B1, the Km in data set [3] came out at 70 µM.
